Source: US9458202B2, “Peptidomimetic macrocycles with improved properties” (Aileron Therapeutics, Inc., priority 2008, dated 2016)
Where a SMILES comes first, the peptide text is derived from it. Bridges are numbered along the chain shown (N, C = ends). [ ]: non-standard residue; d: D form. S5 = C=CCCC[C@](C)(N)C(=O)O; Nle = CCCC[C@H](N)C(=O)O

Columns and labels:
circular dichroism = assay: circular dichroism; parameters: unit not given here; settings: 20 mM phosphoric acid; pH 2.0; 5 °C; 0.05 mg/mL
Figure 2 = assay: Figure 2; parameters: AUCall: concentration or dose not given beside the values; settings: for C0 / half-life / MRT: Sprague-Dawley, rat, plasma, iv; for MRT: read-out: MRTinf_obs
Description: Table printed on a drawing sheet, Figure 2
Footnotes: 2 mg/mL iv bolus in Sprague-Dawley rats (10 mg/kg) / * 0.6 mg/mL iv bolus in Sprague-Dawley rats (3 mg/kg)
The patent's description of the figure: FIG. 2 lists the in vivo half-lives of peptidomimetic macrocycles of the invention. Half-lives were measured in Sprague Dawley rats after one intravenous bolus injection at 0.6 mg/mL or 2 mg/mL of each unlabeled peptidomimetic macrocycle at a 3 mg/kg or 10 mg/kg dose, respectively. Three animals were used per compound and concentrations were determined by mass-spectrometric analysis of blood levels (plasma).
First reader's note: An asterisk before the peptide name marks dosing at 3 mg/kg (0.6 mg/mL) instead of 10 mg/kg (2 mg/mL).

Compound | helicity (circular dichroism) | AUCall (Figure 2) [ng·h/mL] | Cl_obs (Figure 2) [mL/min/kg] | C0 (Figure 2) [ng/mL] | half-life (Figure 2) [h] | MRT (Figure 2) [h]
CCCC[C@H](NC(=O)[C@H](CO)NC(=O)[C@H](CC(=O)O)NC(=O)CNC(=O)[C@@H](NC(=O)[C@H](CCC(N)=O)NC(=O)[C@H](C)NC(=O)[C@H](CC(C)C)NC(=O)[C@H](Cc1c[nH]cn1)NC(=O)[C@H](CCCNC(=N)N)NC(=O)[C@H](C)NC(=O)[C@@H](NC(=O)[C@H](CC(N)=O)NC(=O)[C@H](CCCNC(=N)N)NC(=O)[C@@H](NC(=O)[C@@H](NC(=O)[C@H](CC(=O)O)NC(C)=O)[C@@H](C)CC)[C@@H](C)CC)[C@@H](C)CC)C(C)C)C(=O)N[C@@H](CC(=O)O)C(=O)N[C@@H](CCCNC(=N)N)C(=O)N[C@@H](CO)C(=O)N[C@H](C(N)=O)[C@@H](C)CC [*SP11] (Ac-DIIRNIARHLAQVGDS[Nle]DRSI-NH2) | -1890 | 1136 | 45.53 | 1080 | 1.3 | 1.6
CCCC[C@H](NC(=O)[C@]1(C)CCCC=CCCCC2(CCCC=CCCC[C@@](C)(NC(=O)[C@H](C)NC(=O)[C@@H](NC(=O)[C@H](CC(N)=O)NC(=O)[C@H](CCCNC(=N)N)NC(=O)[C@@H](NC(=O)[C@@H](NC(=O)[C@H](CC(=O)O)NC(C)=O)[C@@H](C)CC)[C@@H](C)CC)[C@@H](C)CC)C(=O)N[C@@H](Cc3c[nH]cn3)C(=O)N[C@@H](CC(C)C)C(=O)N[C@@H](C)C(=O)N2)C(=O)N[C@@H](C(C)C)C(=O)NCC(=O)N[C@@H](CC(=O)O)C(=O)N1)C(=O)N[C@@H](CC(=O)O)C(=O)N[C@@H](CCCNC(=N)N)C(=O)N[C@@H](CO)C(=O)N[C@H](C(N)=O)[C@@H](C)CC (stereo partly shown) [*SP13] | -5450 | 82965 | 0.44 | 6100 | 9.5 | 13.2
CCCC[C@H](NC(=O)[C@@]1(C)CCCC=CCCCC2(CCCC=CCCC[C@](C)(NC(=O)[C@H](C)NC(=O)[C@@H](NC(=O)[C@H](CC(N)=O)NC(=O)[C@H](CCCNC(=N)N)NC(=O)[C@@H](NC(=O)[C@@H](NC(=O)[C@H](CC(=O)O)NC(C)=O)[C@@H](C)CC)[C@@H](C)CC)[C@@H](C)CC)C(=O)N[C@@H](Cc3c[nH]cn3)C(=O)N[C@@H](CC(C)C)C(=O)N[C@@H](C)C(=O)N2)C(=O)N[C@@H](C(C)C)C(=O)NCC(=O)N[C@@H](CC(=O)O)C(=O)N1)C(=O)N[C@@H](CC(=O)O)C(=O)N[C@@H](CCCNC(=N)N)C(=O)N[C@@H](CO)C(=O)N[C@H](C(N)=O)[C@@H](C)CC (stereo partly shown) [*SP14] | -5840 | 74344 | 0.727 | 7200 | 6.7 | 8.7
CC[C@H](C)[C@H](NC(C)=O)C(=O)N[C@@H](Cc1c[nH]c2ccccc12)C(=O)N[C@H](C(=O)N[C@@H](C)C(=O)N[C@@H](CCC(N)=O)C(=O)N[C@@H](C)C(=O)N[C@@H](CC(C)C)C(=O)N[C@@H](CCCNC(=N)N)C(=O)N[C@@H](CCCNC(=N)N)C(=O)N[C@H](C(=O)NCC(=O)N[C@@H](CC(=O)O)C(=O)N[C@@H](CCC(=O)O)C(=O)N[C@@H](Cc1ccccc1)C(=O)N[C@@H](CC(N)=O)C(=O)N[C@@H](C)C(=O)N[C@@H](Cc1ccc(O)cc1)C(=O)N[C@@H](Cc1ccc(O)cc1)C(=O)N[C@@H](C)C(=O)N[C@@H](CCCNC(=N)N)C(=O)N[C@@H](CCCNC(=N)N)C(N)=O)[C@@H](C)CC)[C@@H](C)CC [*SP15] | -2000 | 8430 | 7.467 | 48000 | 0.4 | 0.2
CC[C@H](C)[C@H](NC(C)=O)C(=O)N[C@@]1(C)CCCC=CCCC[C@@](C)(C(=O)N[C@@H](CC(C)C)C(=O)N[C@@H](CCCNC(=N)N)C(=O)N[C@@]2(C)CCCC=CCCC[C@@](C)(C(=O)N[C@@H](Cc3ccccc3)C(=O)N[C@@H](CC(N)=O)C(=O)N[C@@H](C)C(=O)N[C@@H](Cc3ccc(O)cc3)C(=O)N[C@@H](Cc3ccc(O)cc3)C(=O)N[C@@H](C)C(=O)N[C@@H](CCCNC(=N)N)C(=O)N[C@@H](CCCNC(=N)N)C(N)=O)NC(=O)[C@H](CC(=O)O)NC(=O)CNC(=O)[C@H]([C@@H](C)CC)NC2=O)NC(=O)[C@H](CCC(N)=O)NC(=O)[C@H](C)NC(=O)[C@H]([C@@H](C)CC)NC1=O [*SP16] | -14400 | 125889 | 0.4 | 22900 | 4.5 | 4.4
CC(=O)N[C@@H](CCC(N)=O)C(=O)N[C@@H](CO)C(=O)N[C@@]1(C)CCCC=CCCCC2(CCCC=CCCCCCC[C@@](C)(C(=O)N[C@@H](CCC(N)=O)C(=O)N[C@@H](CC(N)=O)C(N)=O)NC(=O)[C@H](CC(C)C)NC(=O)[C@H](CC(C)C)NC(=O)[C@H](CCCNC(=N)N)NC(=O)[C@H](Cc3c[nH]c4ccccc34)NC(=O)[C@H](CC(C)C)NC(=O)[C@H](CC(N)=O)NC2=O)NC(=O)[C@H](Cc2ccccc2)NC(=O)[C@H]([C@@H](C)O)NC(=O)[C@H](CCC(N)=O)NC1=O (stereo partly shown) [*SP17] | -12300 | 102958 | 0.995 | 72800 | 3.3 | 3
CC[C@H](C)[C@H](NC(C)=O)C(=O)N[C@@H](Cc1c[nH]c2ccccc12)C(=O)N[C@H](C(=O)N[C@@H](C)C(=O)N[C@]1(C)CCCC=CCCCC2(CCCC=CCCC[C@@](C)(C(=O)N[C@@H](Cc3ccccc3)C(=O)N[C@@H](CC(N)=O)C(=O)N[C@@H](C)C(=O)N[C@@H](Cc3ccc(O)cc3)C(=O)N[C@@H](Cc3ccc(O)cc3)C(=O)N[C@@H](C)C(=O)N[C@@H](CCCNC(=N)N)C(=O)N[C@@H](CCCNC(=N)N)C(N)=O)NC(=O)[C@H](CC(=O)O)NC(=O)CNC(=O)[C@H]([C@@H](C)CC)NC2=O)NC(=O)[C@H](CCCNC(=N)N)NC(=O)[C@H](CC(C)C)NC(=O)[C@H](C)NC1=O)[C@@H](C)CC (stereo partly shown) [*SP20] | -19200 | 15000 | 3.017 | 1950 | 10.8 | 14.1
CC[C@H](C)[C@H](NC(C)=O)C(=O)N[C@@H](Cc1c[nH]c2ccccc12)C(=O)N[C@H](C(=O)N[C@@H](C)C(=O)N[C@@]1(C)CCCC=CCCCC2(CCCC=CCCCCCC[C@@](C)(C(=O)N[C@@H](Cc3ccc(O)cc3)C(=O)N[C@@H](Cc3ccc(O)cc3)C(=O)N[C@@H](C)C(=O)N[C@@H](CCCNC(=N)N)C(=O)N[C@@H](CCCNC(=N)N)C(N)=O)NC(=O)[C@H](CC(N)=O)NC(=O)[C@H](Cc3ccccc3)NC(=O)[C@H](CCC(=O)O)NC(=O)[C@H](CC(=O)O)NC(=O)CNC(=O)[C@H]([C@@H](C)CC)NC2=O)NC(=O)[C@H](CCCNC(=N)N)NC(=O)[C@H](CC(C)C)NC(=O)[C@H](C)NC1=O)[C@@H](C)CC (stereo partly shown) [*SP21] | -11200 | 7000 | 6.977 | 1450 | 5.7 | 6.6
CCCC[C@H](NC(=O)[C@]1(C)CCCC=CCCC[C@](C)(NC(=O)[C@H](C)NC(=O)[C@H](CC(C)C)NC(=O)[C@H](Cc2c[nH]cn2)NC(=O)[C@H](CCCNC(=N)N)NC(=O)[C@H](C)NC(=O)[C@@H](NC(=O)[C@H](CC(N)=O)NC(=O)[C@H](CCCNC(=N)N)NC(=O)[C@@H](NC(=O)[C@@H](NC(=O)[C@H](CC(=O)O)NC(C)=O)[C@@H](C)CC)[C@@H](C)CC)[C@@H](C)CC)C(=O)N[C@@H](C(C)C)C(=O)NCC(=O)N[C@@H](CC(=O)O)C(=O)N1)C(=O)N[C@@H](CC(=O)O)C(=O)N[C@@H](CCCNC(=N)N)C(=O)N[C@@H](CO)C(=O)N[C@H](C(N)=O)[C@@H](C)CC [SP1] (Ac-DIIRNIARHLA[S5]VGD[S5][Nle]DRSI-NH2; staple 12-16) | -8150 | 268275 | 0.737 | 154000 | – | –
CC[C@H](C)[C@H](NC(C)=O)C(=O)N[C@@H](Cc1c[nH]c2ccccc12)C(=O)N[C@H](C(=O)N[C@@H](C)C(=O)N[C@@H](CCC(N)=O)C(=O)N[C@@H](C)C(=O)N[C@@H](CC(C)C)C(=O)N[C@@H](CCCNC(=N)N)C(=O)N[C@@]1(C)CCCC=CCCC[C@@](C)(C(=O)N[C@@H](Cc2ccccc2)C(=O)N[C@@H](CC(N)=O)C(=O)N[C@@H](C)C(=O)N[C@@H](Cc2ccc(O)cc2)C(=O)N[C@@H](Cc2ccc(O)cc2)C(=O)N[C@@H](C)C(=O)N[C@@H](CCCNC(=N)N)C(=O)N[C@@H](CCCNC(=N)N)C(N)=O)NC(=O)[C@H](CC(=O)O)NC(=O)CNC(=O)[C@H]([C@@H](C)CC)NC1=O)[C@@H](C)CC [SP9] | -14900 | 124448 | 0.83 | 159000 | 7.3 | 4.5
Ac-QSQQTFSNLWRLLPQN-NH2 [*SP22] | -646 | 75 | 700 | 15100 | < 0.1 | < 0.1
